Laboratory results: patent publication US12077508B2, “Inhibitors of the Notch transcriptional activation complex kinase (“NACK”) and methods for use of the same” (UNIVERSITY OF MIAMI, priority 2018, dated 2024)
“Also recorded” adds a separate entry of the source.

Columns and labels:
HES1 promoter = assay: Chromatin immunoprecipitation (ChIP) at the HES1 promoter in OE33; format: cell-based, human; conditions: 24 hours, FIG. 8C
Description: Notch/NACK-dependent cells were treated with either DAPT as a positive control, DMSO (vehicle) as a negative control, or compounds for screening for 24 hours. After treatment, cells were cross-linked and sonicated to yield chromatin fragments of approximately 500 bp, as previously described (See Weaver et al., Cancer Research 74, 4741-4751 (2014)). Lysates were immunoprecipitated with either α-Notch1 (Bethyl Laboratories, Montgomery, TX; A301-894A), α-Maml1 (Cell Signaling, 12166s), α-NACK (Bethyl Laboratories, A302-675A), or α-PoIII pSer5 (Abcam, ab5131) antibodies. DNA immunoprecipitates were cleaned using the PCR purification Kit (Qiagen). DNA were detected by Syber green qPCR using HES1 specific oligonucleotide primers (forward: 5′CGTGTCTCCTCCTCCCATT3′ (SEQ ID NO: 2); reverse: 5′GGGGGATTCCGCTGTTAT3′ (SEQ ID NO:3)).

OE33 cell line = assay: Colony formation assay in OE33 cells; format: cell-based, human; conditions: cells treated every other day; FIGS. 5B, 5C
Description: (§1) A cell based colony formation assay was used in these experiments. Normal mouse mammary epithelia HC11 cells have little or no endogenous NACK expression, and NACK knockdown had no effect on the growth of HC11 cells (FIG. 5A, lower panel). […] Knockdown of NACK was confirmed by western blot and qPCR (FIGS. 1D and 1E). […] Therefore, compounds that affect OE33 colony formation but not HC11 were desired. In order to screen the compounds, cells were treated with test compounds every other day.
(§2) Colony formation assay was utilized to determine the effect of small molecule inhibitors on cell proliferation. In general, different cell lines (NACK dependent or independent) will be seeded in 6-well plates at a density of 2000 cells per well and allowed to attach overnight. Inhibitor treatment commenced 24 hours post seeding, and the media containing inhibitor was changed every 48 hours thereafter. After 168 hours, colonies were be stained with Crystal Violet (Millipore) and counted.

OE33 cells = assay: Cell apoptosis assay (Annexin V/PI flow cytometry); format: cell-based, human; conditions: day 7 of treatment, FIG. 9A
Description: To investigate how Z271-0326 inhibits cell growth in EAC cell lines, the effect of Z271-0326 treatment was evaluated on apoptosis. OE33 was treated either with the GSI DAPT or Z271-0326 every other day, and their effects on apoptosis were analyzed. On day 7 of treatment, cell apoptosis was analyzed using FITC Annexin V/Dead Cell Apoptosis Kit with FIFC annexin V and PI for flow cytometry (Invitrogen, V13242).

HC11 cells = assay: Colony formation assay in HC11 cells; format: cell-based, mouse; conditions: Notch/NACK independent cell line; FIG. 5B
Description: as §1, §2

C[C@H](NC(=O)Cc1cc(F)cc(F)c1)C(=O)N[C@H](C(=O)OC(C)(C)C)c1ccccc1 [DAPT, reference compound]
binding of N1ICD and NACK to the HES1 promoter (HES1 promoter): abrogated the binding of N1ICD and NACK to the HES1 promoter | OE33 colony formation (OE33 cell line): reduction in the colony formation | increase in the percent of cells undergoing apoptosis compared to the control (OE33 cells): twofold | HC11 colony formation / viability (HC11 cells): did not alter the viability of HC11 cells; also recorded: insensitive
